Source: PMC4183613 (Journal of the American Chemical Society, 2014)

How the values were obtained:
PRC2 [1] = biological target: T1, PRC2 (Homo sapiens, UniProt Q15910); format: biochemical; details: mononucleosome substrates; Figure 2C
[2] = biological target: polycomb repressor complex 2 (PRC2) (human (purified from HeLa cells)) (UniProt Q15910)
[3] = biological target: polycomb repressor complex 2 (PRC2) (human (purified from HeLa cells)) (UniProt Q15910); remark: listed apart in the source
[4] = biological target: polycomb repressor complex 2 (PRC2) (human (purified from HeLa cells)) (UniProt Q15910); assay: methyltransferase inhibition kinetics
PRC2 [5] = biological target: T1, PRC2; assay: PRC2 inhibition, scintillation methyltransferase assay with H3; format: biochemical; details: peptide 50 μM; substrate peptide 20 μM; 3H-SAM scintillation assay

T1 sequence (Q15910 whole entry): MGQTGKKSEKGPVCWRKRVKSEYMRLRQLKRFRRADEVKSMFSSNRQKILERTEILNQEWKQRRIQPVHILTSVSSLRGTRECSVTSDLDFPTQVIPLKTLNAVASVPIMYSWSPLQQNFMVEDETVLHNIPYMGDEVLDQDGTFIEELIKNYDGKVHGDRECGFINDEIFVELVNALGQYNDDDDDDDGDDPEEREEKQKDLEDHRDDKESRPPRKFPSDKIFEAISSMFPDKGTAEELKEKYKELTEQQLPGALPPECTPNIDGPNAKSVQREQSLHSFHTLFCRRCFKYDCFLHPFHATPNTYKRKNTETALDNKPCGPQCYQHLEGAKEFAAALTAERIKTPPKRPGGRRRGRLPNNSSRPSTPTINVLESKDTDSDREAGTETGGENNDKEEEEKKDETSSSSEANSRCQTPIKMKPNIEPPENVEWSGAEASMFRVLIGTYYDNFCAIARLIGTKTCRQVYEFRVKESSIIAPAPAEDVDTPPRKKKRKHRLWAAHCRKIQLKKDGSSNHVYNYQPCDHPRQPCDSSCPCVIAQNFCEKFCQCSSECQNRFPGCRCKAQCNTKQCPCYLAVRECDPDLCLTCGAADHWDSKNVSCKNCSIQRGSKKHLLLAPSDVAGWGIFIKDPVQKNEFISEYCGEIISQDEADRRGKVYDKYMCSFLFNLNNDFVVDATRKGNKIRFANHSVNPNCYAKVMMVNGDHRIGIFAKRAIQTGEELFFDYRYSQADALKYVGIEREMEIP
T1 sequence (O75530 whole entry partner): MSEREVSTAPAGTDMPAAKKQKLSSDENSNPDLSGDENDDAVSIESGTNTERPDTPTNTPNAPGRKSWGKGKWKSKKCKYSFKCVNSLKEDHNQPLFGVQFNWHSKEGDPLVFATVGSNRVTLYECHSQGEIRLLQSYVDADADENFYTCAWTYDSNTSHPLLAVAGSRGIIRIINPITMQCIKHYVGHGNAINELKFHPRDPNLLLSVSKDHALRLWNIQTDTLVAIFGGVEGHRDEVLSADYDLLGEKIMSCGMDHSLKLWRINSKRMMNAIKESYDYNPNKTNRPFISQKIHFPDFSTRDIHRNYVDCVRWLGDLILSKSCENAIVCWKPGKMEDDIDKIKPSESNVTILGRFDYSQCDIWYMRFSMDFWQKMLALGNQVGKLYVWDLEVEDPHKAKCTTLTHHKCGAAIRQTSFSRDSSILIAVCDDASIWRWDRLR
T1 sequence (Q15022 whole entry partner): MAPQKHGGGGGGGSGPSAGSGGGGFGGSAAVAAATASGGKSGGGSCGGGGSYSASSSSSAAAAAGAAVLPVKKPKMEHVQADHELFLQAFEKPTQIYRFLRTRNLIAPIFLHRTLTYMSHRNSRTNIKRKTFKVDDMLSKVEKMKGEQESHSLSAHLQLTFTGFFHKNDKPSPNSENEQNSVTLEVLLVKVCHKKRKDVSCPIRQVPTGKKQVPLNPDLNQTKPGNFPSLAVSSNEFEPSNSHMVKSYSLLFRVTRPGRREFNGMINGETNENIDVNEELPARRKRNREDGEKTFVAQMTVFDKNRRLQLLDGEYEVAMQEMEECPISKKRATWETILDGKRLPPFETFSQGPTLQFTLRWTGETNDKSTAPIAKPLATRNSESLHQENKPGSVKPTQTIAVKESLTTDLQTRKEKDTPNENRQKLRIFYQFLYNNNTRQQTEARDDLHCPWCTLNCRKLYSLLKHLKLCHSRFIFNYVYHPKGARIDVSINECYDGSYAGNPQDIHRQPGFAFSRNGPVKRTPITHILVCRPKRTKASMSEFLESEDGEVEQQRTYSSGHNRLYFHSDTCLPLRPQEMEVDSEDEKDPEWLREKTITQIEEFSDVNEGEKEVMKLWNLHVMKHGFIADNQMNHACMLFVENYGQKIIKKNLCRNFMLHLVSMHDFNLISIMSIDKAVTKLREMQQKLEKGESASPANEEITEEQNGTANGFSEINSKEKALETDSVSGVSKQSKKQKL
T1 sequence (Q09028 whole entry partner): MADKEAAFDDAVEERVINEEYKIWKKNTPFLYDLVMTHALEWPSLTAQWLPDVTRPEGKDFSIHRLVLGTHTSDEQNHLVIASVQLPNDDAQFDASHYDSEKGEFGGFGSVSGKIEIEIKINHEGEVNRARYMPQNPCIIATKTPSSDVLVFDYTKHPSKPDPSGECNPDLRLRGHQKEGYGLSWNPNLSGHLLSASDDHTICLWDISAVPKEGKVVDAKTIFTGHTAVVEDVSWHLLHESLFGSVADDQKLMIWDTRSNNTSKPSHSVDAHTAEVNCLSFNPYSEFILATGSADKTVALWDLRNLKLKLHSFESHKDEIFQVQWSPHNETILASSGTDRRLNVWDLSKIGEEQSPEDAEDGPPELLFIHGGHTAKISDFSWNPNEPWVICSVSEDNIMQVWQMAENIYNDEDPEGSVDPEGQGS

| Substance | inhibition of PRC2 methyltransferase activity, in words (PRC2 [5]) | other results |
| --- | --- | --- |
| H3 1-10-GGG-H3 21-37 [compound 39] | – | inhibition by bitopic constructs, in words (PRC2 [1]): outperformed longer linkers |
| H3.3(23-34) peptide 18 (trifluoro-methionine at residue 27) | – | IC50 of inhibition of PRC2 methyltransferase activity (Figure S2A) [2]: 11000 nM |
| H3K27M mutant mononucleosome (from UniProt P84243 1-136) (complex) | – | IC50 of inhibition of PRC2 methylation of mononucleosome substrates [3]: 2.6 nM; Ki [4]: 2.1 nM |
| KAARXSAPSTGG [compound 3] | complete inhibition | – |
| KAARXSAPSTGG [compound 4] | did not provide measurable inhibition | – |
| KAARXSAPSTGG [compound 5] | modest loss in activity | – |
| KAARXSAPSTGG [compound 7] | did not provide measurable inhibition | – |
| KAARXSAPSTGG [compound 8] | did not provide measurable inhibition | – |
| KAARXSAPSTGG [compound 16] | modest loss of inhibition | – |
| KAARXSAPSTGG [compound 17] | abolished inhibition | – |
